In patent US10640457B2, “Histone acetyltransferase activators and uses thereof” (The Trustees of Columbia University in the City of New York, priority 2009, dated 2020):
“Also recorded” adds a separate entry of the source.

How the values were obtained:
[1] = tested on: acetylated H4; test: Western blot of hippocampal acetylated H4 after fear conditioning (TSA); format: in vivo, mice
Procedure: We will also test if defects seen in APP/PS1 mice, compared to WT littermates, are due to epigenetic effects. […] (each herein incorporated by reference in its entirety). Acetylation of H4 in hippocampus from WT and APP/PS1 animals was measured. Vehicle control solution was administered i.p. 2 hrs before FC training. 1 hr after contextual FC, the APP/PS1 and WT mice were euthanized and hippocampi were extracted. […] Whether HDAC inhibition might rescue the histone 4 acetylation levels defect observed in APP/PS1 mice was also tested. Injection of TSA (2 μg/g body weight; i.p) 2 hours prior to contextual fear conditioning enhanced H4 acetylation of APP/PS1 mice (FIG. 22). Without being bound by theory, AD is likely to be a disease with an epigenetic motif and HDAC inhibitors can elevate decreased levels of histone 4 in an AD mouse model.
APP/PS1 mice display a reduced endogenous level of histone 4 acetylation in response to a learning task. Given that HDAC inhibitors are known to acetylate other molecules besides histones [B49] […] We measured acetylation of H4 in hippocampus from 3 to 4 month old wild-type (WT) and APP/PS1 animals, after training for fear conditioning. […]

[2] = tested on: Aβ42-infused mice; test: Contextual and cued fear conditioning in Aβ-infused mice (YF2); format: in vivo
Procedure: Contextual and cued fear conditioning was performed to assess whether the compound is capable of ameliorating amyloid-beta (Aβ) induced memory defect. Aβ is a peptide which is elevated in Alzheimer's disease. The hippocampus plays a key role in contextual memory and in Alzheimer's Disease. This type of cognitive test is much faster than other behavioral tasks that require multiple days of training and testing [Q1, Q2]; each herein incorporated by reference in its entirety. The conditioning chamber was in a sound-attenuating box. A clear Plexiglas window allowed the experimenter to film the mouse performance with a camera placed on a tripod and connected to the Freezeframe software (MED Ass. Inc.). To provide background white noise (72 dB), a single computer fan was installed in one of the sides of the sound-attenuating chamber. […] The floor was removable, and after each experimental subject, we cleaned it with 75% ethanol and then with water. Only one animal at a time was present in the experimentation room.
For the cued and contextual conditioning experiments, mice were placed in the conditioning chamber for 2 min before the onset of a discrete tone (CS) (a sound that lasted 30 sec at 2800 Hz and 85 dB). In the last 2 sec of the CS, mice were given a foot shock (US) of 0.8 mA for 2 sec through the bars of the floor. […] Freezing behavior, defined as the absence of all movement except for that necessitated by breathing, was scored using the Freezeview software.
To evaluate contextual fear learning, freezing was measured for 5 min (consecutively) in the chamber in which the mice was trained 24 hr after training. To evaluate cued fear learning, following contextual testing, the mice were placed in a novel context (triangular cage with smooth flat floor) for 2 min (pre-CS test), after which they were exposed to the CS for 3 min (CS test), and freezing was measured. Sensory perception of the shock was determined through threshold assessment. […] Initially, a […] shock was delivered for 1 sec, and the animal behavior was evaluated for flinching, jumping, and vocalization. […]

[3] = tested on: Aβ42-treated slices; test: LTP in Aβ42-treated hippocampal slices (YF2); conditions: 200 nM Aβ42-treated slices; YF2 1 μM for 30 min prior to the θ-burst
Procedure: Next, we checked if YF2 could attenuate synaptic and cognitive dysfunction after Aβ elevation. […] Next, we induced LTP or contextual fear memory as well as reference memory in the presence of oligomeric Aβ42, or vehicle. In the LTP experiments 200 nM Aβ42 or vehicle were perfused through the bath solution for 20 min prior to the application of the θ-burst. In the behavioral experiments 200 nM Aβ42 (in a final volume of 1 μl over 1 min) or vehicle were bilaterally infused 15 min prior to the foot shock or 15 min prior to the 1st trial (for the 1st group of tests in a 2-day radial arm water maze (RAWM) test assessing reference memory^[P34] (herein incorporated by reference in its entirety)) and 15 min prior to the 7th trial (for the 2nd group of tests of the RAWM) into dorsal hippocampus of the animal that had been pre-implanted with a cannula the week before. Aβ reduced LTP and both reference and contextual fear memory (FIG. 66).

[4] = Pharmacokinetics and brain penetration, plasma and brain by LC-MS/MS; format: in vivo, BALB/c mice
Procedure: After i.p. and i.v. administration at 20 mg/kg to BALB/c mice, plasma and brain concentrations were determined by LC-MS/MS.

[5] = Kinetics of YF2 in tail blood; format: in vivo, mice; conditions: 20 mg/kg i.p.
Procedure: To this purpose, we administered the compound (20 mg/kg. i.p.) and then sampled blood from tails at different time points.

[6] = IP administration 20 mg/kg, brain
[7] = IV administration 20 mg/kg, brain

| SMILES | H4 acetylation in hippocampus of APP/PS1 mice ([1]; TSA 2 mg/kg i.p. 2 hours prior to fear conditioning, 1 hour after training) | H4 acetylation levels in WT mice ([1]; TSA 2 mg/kg i.p., vs vehicle-treated WT) | contextual memory, compound alone ([2]; 20 mg/kg i.p., no Aβ) | contextual fear memory deficit (freezing time) ([2]; Aβ42-infused mice, i.p. 20 mg/kg 2 hrs or 5 mg/kg 30 min before the electric shock) | cued memory ([2]; different groups (vehicle, YF2, Aβ, YF2 plus Aβ)) | LTP deficit [3] | AUC0-t [4, 6] | AUC0-∞ [4, 6] | F [4, 6] | F ([4]; IP administration 20 mg/kg, plasma) | AUC0-t [4, 7] | AUC0-∞ [4, 7] | time of peak in blood post-injection [5] |
| --- | --- | --- | --- | --- | --- | --- | --- | --- | --- | --- | --- | --- | --- |
| CC(/C=C/C(=O)NO)=C\[C@@H](C)C(=O)c1ccc(N(C)C)cc1 [TSA, trichostatin A] | enhanced; also recorded: rescued; also recorded: enhancement | increased | – | – | – | – | – | – | – | – | – | – | – |
| CCOc1cccc(OCCN(C)C)c1C(=O)Nc1ccc(Cl)c(C(F)(F)F)c1 [YF2] | – | – | did not affect | ameliorated; also recorded: dramatically increasing | not changed | ameliorated; also recorded: rescues | 6493 ng·h/g | 6564 ng·h/g | 29.2% | 41.0% | 22222 ng·h/g | 22581 ng·h/g | around 30 minutes |
